# Measured values from US10781224B2, “Bis(oxymethyl)phosphinic acid and biogenic metal salts thereof as regulators of plant growth and development” (priority 2016, dated 2020).
# Key:
# Assay type in all cases: in vivo
# [1] = system: corn (Krasnodar 385 MV variety); test: Corn seed treatment with BHMPA salts: germination energy and germination rate; conditions: comparative study vs Melaphen, 1·10^−7% solution
# Method: (§1) Control—Soaking Seeds in Water;
# (§2) Experimental versions—soaking seeds in BHMPA solutions and solutions of BHMPA Ca, Mg, Na, Co, Mn, Cu, and Zn salts at 1·10^−6-1·10^−12% concentrations (doses). The studies were conducted in laboratory in Petri dishes; seed bed—two layers of filter paper. 50 seeds soaked in water (control) and in the solutions of the tested compounds (experimental) were placed into each dish. Wheat, corn, and rice seeds were exposed for one hour.
# (§3) Analysis was conducted according to the government standards GOST 12038-84 “Crop seeds. Technical conditions for determining the germination energy and germination rate”, GOST 12044-93 “Crop seeds. Methods for determining disease contamination.”
# (§4) Seed germination energy and rate were calculated in percent as an arithmetic mean of the four experimental results (germination energy on the 4th day, wheat germination on the 8th day, rice and corn germination—on the 7th day). Germination was determined based on the germinating power indicators (length of the roots and sprouts and their wet and dry mass per 100 shoots).
# (§5) The effect of pre-sowing seed treatment with the claimed BHMPA salts of biogenic metals was studied on winter wheat (Vershin variety), corn (Krasnodar 385 MV variety), and rice (Diamant variety).
# [2] = system: winter wheat (Vershin variety); test: Winter wheat seed treatment with BHMPA salts: germinating power (length and mass of roots and sprouts); conditions: comparative study, 1·10^−7% solution
# Method: as §2, §4, §5
# (§6) The above data describe the seed viability only at the initial stage of germination, while the germination ability at the later stage of germination is defined by the initial germinating power. The method for the determination of the germinating power comprises measuring the height of the sprouts and primary roots, as well as the biomass and the dry mass thereof per 100 seedlings. [M. A. Kartuzova. Initial Germinating Power as Method of Biological Assessment of Seed Quality. Selection and Seed Farming, #2, 1953].
# rice (Diamant variety) [3] = test: Rice seed treatment with BHMPA salts: germinating power; conditions: rice seed treatment, comparison with Melaphen (Table XXXIII), solution 1 · 10^−8%
# Method: as §2, §4, §5, §6
# [4] = system: spring wheat (Ekada-66 variety); test: Spring wheat seed treatment: germination rate and plant height (laboratory, Petri dishes); conditions: spring wheat
# Method: as §1, §2, §3, §4
# The study of the effect of pre-sowing seed treatment with BHMPA was conducted on winter wheat (Kazan-500 variety) and spring wheat (Ekada-66 variety).
# [5] = system: winter wheat (Kazan 560 variety); test: Field study: winter wheat seed treatment and spraying, yield and quality of the grain; conditions: for Field germination, % / Grain mass from the main ear / Number of grains in an ear / Viability, % / Yield, dt/ha: winter wheat
# Method: Field studies were conducted for the BHMPA Mg-salt. The effect of treatment winter wheat seeds (Kazan 560 variety) with BHMPA Mg-salt solutions on the yield and quality of the grain was examined. The field experiment was conducted at a branch of a fallow rotation. The seeds were sowed on Sep. 1, 2015, in an area covering 1.7 hectares of the experimental field located at the experimental base of Tatarstan Research Institute of Agriculture. For comparison, the seeds were treated with the BHMPA Mg-salt solution and the known growth-regulator Melaphen at the same concentrations, optimum for Melaphen.
# The experiment was conducted for the following variants: • 1. Control (no seed treatment); • 2. Seed treatment with the BHMPA Mg-salt solution at a 1·10^−7% concentration; • 3. Seed treatment with the BHMPA Mg-salt solution at a 1·10^−7% concentration+spraying with the BHMPA Mg-salt solution at a 1·10^−8% concentration upon vegetation during spring tillering and earing phases; • 4. Seed treatment with the growth regulator Melaphen at a 1·10^−7% concentration; • 5. Seed treatment with Melaphen at a 1·10^−7% concentration and spraying with Melaphen at a 1·10^−8% concentration upon vegetation during spring tillering and earing phases.
# The seeds were treated with the experimental compounds together with a seed disinfectant at a rate of 10 ml/T. The vegetating plants were treated at a rate of 5 ml/ha. Identical field operations appropriate for that zone as well as plant protection measures against weeds and disease, were applied in all cases.
# Results of field experiments with BHMPA Mg-salt as the main growth-regulating component of said pre-sowing seed treatment combined with additional treatment of winter wheat plants with other claimed BHMPA salts, are presented in Table XXXV.
# [6] = system: winter wheat (Vershin variety); test: Winter wheat seed treatment with BHMPA salts: germination energy and germination rate; conditions: winter wheat; comparative study vs Melaphen; 1·10^−7% solution
# Method: as §1, §2, §3, §4, §5
# [7] = system: corn (Krasnodar 385 MV variety); test: Corn seed treatment with BHMPA salts: germinating power; conditions: corn seeds; solution concentration 1 · 10^−7%
# Method: as §2, §4, §5, §6
# rice (Diamant variety) [8] = test: Rice seed treatment with BHMPA salts: germination energy and germination rate
# Method: as §1, §2, §3, §4, §5
# [9] = seed treatment 1 · 10^−7% + spraying plants with the same substance 1 · 10^−8%
# [10] = rice seed treatment, solution 1 · 10^−8%
# [11] = rice, comparative study vs Melaphen, 1·10^−8% solution
smiles,measurement,setting,value
"Nc1nc(N)nc(N)n1.O=P(O)(CO)CO [Melaphen, melamine salt of BHMPA, reference compound]",Germination energy,[1],90.7%
same,Germination rate,[1],97.7%
same,"Length, root",[2],10.3 cm
same,"Length, root, + % to control",[2],18%
same,"Length, sprout",[2],7.3 cm
same,"Length, sprout, + % to control",[2],18%
same,"Mass, dry, root",[2],0.72 g/100 plantlings
same,"Mass, dry, root, + % to control",[2],16%
same,"Mass, dry, sprout",[2],0.59 g/100 plantlings
same,"Mass, dry, sprout, + % to control",[2],16%
same,"Mass, wet, root",[2],6.02 g/100 plantlings
same,"Mass, wet, root, + % to control",[2],66%
same,"Mass, wet, sprout",[2],5.27 g/100 plantlings
same,"Mass, wet, sprout, + % to control",[2],33%
same,"Length, root",rice (Diamant variety) [3],7.6 cm
same,"Length, root, + % to control",rice (Diamant variety) [3],58%
same,"Length, sprout",rice (Diamant variety) [3],4.9 cm
same,"Length, sprout, + % to control",rice (Diamant variety) [3],88%
same,"Mass, dry, root",rice (Diamant variety) [3],0.29 g/100 plantlings
same,"Mass, dry, root, + % to control",rice (Diamant variety) [3],38%
same,"Mass, dry, sprout",rice (Diamant variety) [3],0.35 g/100 plantlings
same,"Mass, dry, sprout, + % to control",rice (Diamant variety) [3],40%
same,"Mass, wet, root",rice (Diamant variety) [3],1.57 g/100 plantlings
same,"Mass, wet, root, + % to control",rice (Diamant variety) [3],60%
same,"Mass, wet, sprout",rice (Diamant variety) [3],2.62 g/100 plantlings
same,"Mass, wet, sprout, + % to control",rice (Diamant variety) [3],73.5%
same,Germination rate % 4th day,[4]; 1·10^−7% solution,54.0%
same,Germination rate % 8th day,[4]; 1·10^−7% solution,82.0%
same,Plant height,[4]; 1·10^−7% solution,14.8 cm
same,Germination rate % 4th day,[4]; 1·10^−9% solution,52.0%
same,Germination rate % 8th day,[4]; 1·10^−9% solution,81.0%
same,Plant height,[4]; 1·10^−9% solution,14.5 cm
same,yield of winter wheat,"[5]; field, seeds treated at 1·10^−7% and plants sprayed with 1·10^−8%, control 21.7 dt/ha",29.3 dt/ha
same,"Field germination, %",[5]; seed treatment 1 · 10^−7%,71%
same,Grain mass from the main ear,[5]; seed treatment 1 · 10^−7%,1.0 g
same,Number of grains in an ear,[5]; seed treatment 1 · 10^−7%,27
same,"Viability, %",[5]; seed treatment 1 · 10^−7%,74%
same,"Yield, dt/ha",[5]; seed treatment 1 · 10^−7%,28.0 dt/ha
same,"Field germination, %",[5]; [9],71%
same,Grain mass from the main ear,[5]; [9],1.2 g
same,Number of grains in an ear,[5]; [9],30
same,"Viability, %",[5]; [9],62%
same,"Yield, dt/ha",[5]; [9],29.3 dt/ha
same,Germination energy,[6],95.0%
same,Germination rate,[6],98.3%
same,"Length, root",[7],8.4 cm
same,"Length, root, + % to control",[7],42%
same,"Length, sprout",[7],4.3 cm
same,"Length, sprout, + % to control",[7],59%
same,"Mass, dry, root",[7],2.42 g/100 plantlings
same,"Mass, dry, root, + % to control",[7],37.5%
same,"Mass, dry, sprout",[7],1.86 g/100 plantlings
same,"Mass, dry, sprout, + % to control",[7],37%
same,"Mass, wet, root",[7],12.02 g/100 plantlings
same,"Mass, wet, root, + % to control",[7],37%
same,"Mass, wet, sprout",[7],10.23 g/100 plantlings
same,"Mass, wet, sprout, + % to control",[7],44%
same,"Germination energy, %",rice (Diamant variety) [8]; [10],89.5%
same,"Germination rate, %",rice (Diamant variety) [8]; [10],96.3%
same,Germination energy,rice (Diamant variety) [8]; [11],89.5%
same,Germination rate,rice (Diamant variety) [8]; [11],96.3%
